Key:
BsVdcCD = target: T1, BsVdcCD (Bacillus subtilis, UniProt P94405); test: overnight endpoint HPLC decarboxylation assay; assay type: biochemical; settings: 5 mM substrate, 10 µM enzyme, prFMN, MnCl2, 100 mM KPi pH 6, anaerobic, 18 h
T1 construct: gene bsdC; VdcC and VdcD expressed in E. coli BL21(DE3), His tag on C-terminus of VdcC and/or N-terminus of VdcD; reconstituted in vitro with prFMN and Mn2+; with Phenolic acid decarboxylase subunit D
T1 sequence (P94405 1-473): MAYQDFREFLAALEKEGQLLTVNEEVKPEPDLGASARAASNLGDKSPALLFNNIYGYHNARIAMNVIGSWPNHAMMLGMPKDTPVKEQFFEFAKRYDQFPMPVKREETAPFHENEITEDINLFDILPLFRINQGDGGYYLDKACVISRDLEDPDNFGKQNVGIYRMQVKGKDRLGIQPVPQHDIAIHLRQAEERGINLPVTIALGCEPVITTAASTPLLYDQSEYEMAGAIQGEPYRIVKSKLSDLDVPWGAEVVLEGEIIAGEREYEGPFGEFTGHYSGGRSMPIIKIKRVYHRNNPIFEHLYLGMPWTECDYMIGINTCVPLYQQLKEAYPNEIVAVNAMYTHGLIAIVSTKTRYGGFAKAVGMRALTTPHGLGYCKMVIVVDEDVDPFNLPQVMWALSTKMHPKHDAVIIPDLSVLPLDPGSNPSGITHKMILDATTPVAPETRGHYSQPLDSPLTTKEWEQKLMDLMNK
T1 sequence (C0H3U9 1-75 partner): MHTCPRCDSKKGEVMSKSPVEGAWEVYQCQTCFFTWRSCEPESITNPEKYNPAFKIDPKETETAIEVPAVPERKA

[1] = target: Sedimentibacter hydroxybenzoicus VdcC, untagged (Sedimentibacter hydroxybenzoicus); test: crystal structure; apo complexes; F222 closed (7AE4), P1 open (7AE5), P212121 ShVdcCD^V59X (7AE7); molecular replacement with E. coli UbiD domains

stoichiometry N [1]	Compound	overnight endpoint HPLC decarboxylation assay (BsVdcCD)
	COc1cc(C(=O)O)cc(OC)c1O [syringic acid]	syringic acid, for which product formation could only be detected in the presence of BsVdcCD
6	Sedimentibacter hydroxybenzoicus VdcC, untagged (enzyme)	
	COc1cc(C(=O)O)ccc1O [vanillic acid]	the VdcC + VdcD reconstituted samples demonstrated considerable activity in contrast to isolated VdcC
